Laboratory results: ChEMBL document CHEMBL1133230, “1-Aminomethylisoquinoline-4-carboxylates as novel dipeptidylpeptidase IV inhibitors” (Bioorg Med Chem Lett, 2000)

Biological target: Dipeptidyl peptidase 4 (Homo sapiens, UniProt P27487)
Assay: In vitro inhibition of Dipeptidylpeptidase IV from Caco-2 (human colon carcinoma) cells.
Format: cell-based

Dipeptidyl peptidase 4, sequence (P27487 whole entry): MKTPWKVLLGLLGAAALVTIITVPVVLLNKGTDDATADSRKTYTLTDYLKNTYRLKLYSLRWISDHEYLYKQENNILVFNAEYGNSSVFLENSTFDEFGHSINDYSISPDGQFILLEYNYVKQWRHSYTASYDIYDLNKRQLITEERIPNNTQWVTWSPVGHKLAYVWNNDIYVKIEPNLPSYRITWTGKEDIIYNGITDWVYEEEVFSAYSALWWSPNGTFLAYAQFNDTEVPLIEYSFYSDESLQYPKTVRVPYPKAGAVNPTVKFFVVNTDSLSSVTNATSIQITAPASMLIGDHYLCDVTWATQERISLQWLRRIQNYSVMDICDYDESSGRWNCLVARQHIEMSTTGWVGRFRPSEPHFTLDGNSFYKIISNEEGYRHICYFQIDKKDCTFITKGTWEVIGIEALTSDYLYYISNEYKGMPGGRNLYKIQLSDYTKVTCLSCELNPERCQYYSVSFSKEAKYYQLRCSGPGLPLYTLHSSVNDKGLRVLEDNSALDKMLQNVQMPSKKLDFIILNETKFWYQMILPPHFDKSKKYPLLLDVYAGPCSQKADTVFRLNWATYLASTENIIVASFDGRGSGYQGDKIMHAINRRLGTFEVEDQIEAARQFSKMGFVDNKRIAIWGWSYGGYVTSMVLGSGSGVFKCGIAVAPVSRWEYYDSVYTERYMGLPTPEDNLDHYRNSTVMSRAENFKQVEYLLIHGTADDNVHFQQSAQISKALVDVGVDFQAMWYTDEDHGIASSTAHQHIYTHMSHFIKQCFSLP

**Q.** With `CCOC(=O)CCc1cnc(CN)c2cc(OC)c(OC)cc12` as the compound, how does the IC50 read?
**A.** 52.6 µM

**Q.** Which IC50 does the source give for `CCOC(=O)c1cnc(CCN)c2cc(OC)c(OC)cc12` here?
**A.** 746 µM

**Q.** How did the IC50 turn out when `CCOC(=O)/C=C/c1cnc(CN)c2cc(OC)c(OC)cc12` was run?
**A.** 18 µM

**Q.** `CCOC(=O)c1cnc(CN)c2c(OC)c(OC)c(OC)cc12` was tested. Which IC50 did it give?
**A.** 1.1 µM

**Q.** With `CCOC(=O)c1cnc(CN)c2cc(OC)c(OC)c(OC)c12` as the compound, how does the IC50 read?
**A.** 18 µM

**Q.** Which IC50 does the source give for `CCCNC(=O)c1cnc(CN)c2cc(OC)c(OC)cc12` here?
**A.** 51.4 µM

**Q.** Which IC50 does the source give for `COc1cc2c(C=O)cnc(CN)c2cc1OC` here?
**A.** 277 µM

**Q.** For `CCCOc1cc2c(CN)ncc(C(=O)OCC)c2cc1OC`, which IC50 is on record?
**A.** 8.4 µM

**Q.** Which IC50 does the source give for `CCOC(=O)c1cnc(CN(C)C)c2cc(OC)c(OC)cc12` here?
**A.** 948 µM

**Q.** With `CCOC(=O)Cc1cnc(CN)c2cc(OC)c(OC)cc12` as the compound, how does the IC50 read?
**A.** 17 µM

**Q.** How did the IC50 turn out when `CCOC(=O)c1cnc(CN)c2ccc(OC)cc12` was run?
**A.** 207 µM

**Q.** With `CCOC(=O)c1cnc(CN)c2cc(OC)c(OC)cc12` as the compound, how does the IC50 read?
**A.** 3.4 µM

**Q.** For `CCOC(=O)c1cnc(CN)c2cc(O)c(OC)cc12`, which IC50 is on record?
**A.** 14 µM

**Q.** `CCOC(=O)c1cnc(CN)c2cc(OC)c(OCC)cc12` was tested. Which IC50 did it give?
**A.** 4.7 µM

**Q.** With `CCOC(=O)c1cnc(CN)c2c(OC)ccc(OC)c12` as the compound, how does the IC50 read?
**A.** 2.4 µM

**Q.** For `CCOC(=O)Nc1cnc(CN)c2cc(OC)c(OC)cc12`, which IC50 is on record?
**A.** 2.3 µM

**Q.** Which IC50 does the source give for `CCOC(=O)c1cnc(CNC)c2cc(OC)c(OC)cc12` here?
**A.** 731 µM

**Q.** With `CCOC(=O)c1cnc(CN)c2cc(OCC)c(OC)cc12` as the compound, how does the IC50 read?
**A.** 6.7 µM

**Q.** `COc1cc2c(CO)cnc(CN)c2cc1OC` was tested. Which IC50 did it give?
**A.** 31.8 µM

**Q.** With `COc1cc2c(C(N)=O)cnc(CN)c2cc1OC` as the compound, how does the IC50 read?
**A.** 170 µM

**Q.** Which IC50 does the source give for `COc1cc2c(C(=O)O)cnc(CN)c2cc1OC` here?
**A.** 103 µM
